Key:
[1] = Tabletting in a cam press: formation of form B under mechanical pressure, estimated by X-ray powder diffraction; assay type: physicochemical
Experimental: The pressures here are preferably those which usually prevail during tablet production if ram forces of between about 2 and 16 kN, in particular between 6 and 16 kN, are used as the maximum pressing forces.
In an EK0 cam press from Korsch (Berlin, Germany), year of construction 2002, tablets are produced at a rate of 50 units per minute using a 7 mm, round, flat ram with bevel.
The tablets contain 50 mg of EMD281014 in crystal form A, 93.2 mg of lactose monohydrate, 4.5 mg of croscarmellose and 2.3 mg of magnesium stearate. The ingredients are dry-mixed and compressed directly.
The proportion of form B is estimated by comparison of the X-ray powder diffraction patterns of the mixtures (FIGS. 3 and 4) with the diffraction patterns of the pure forms (FIGS. 1 and 2).

[2] = Stirring a suspension of form A in MTBE, form B estimated by X-ray powder diffraction; assay type: physicochemical
[3] = Storage of form B at elevated temperature, conversion into form A; assay type: physicochemical; conditions: storage at 105° C. for 24 hours
Experimental: Furthermore, a very simple method for the preparation of form A from form B has been found. To this end, form B merely needs to be stored at elevated temperatures of between about 75 and about 225° C., preferably 90 and 160° C. and particularly preferably between 110 and 140° C. Depending on the temperature and the storage duration, different degrees of conversion can be achieved. Depending on the target degree of conversion, the storage duration at a given temperature can be between a few minutes and several days. In order to achieve high degrees of conversion, […] is preferably stored for from several hours to days. Suitable storage times are, for example, 4, 8, 12, 16, 20, 24, 36 or 48 hours.

[4] = target: T1, 5-HT2A receptor (Homo sapiens, UniProt P28223); conditions: background statement, no values; cited from earlier work
T1 sequence (P28223 whole entry): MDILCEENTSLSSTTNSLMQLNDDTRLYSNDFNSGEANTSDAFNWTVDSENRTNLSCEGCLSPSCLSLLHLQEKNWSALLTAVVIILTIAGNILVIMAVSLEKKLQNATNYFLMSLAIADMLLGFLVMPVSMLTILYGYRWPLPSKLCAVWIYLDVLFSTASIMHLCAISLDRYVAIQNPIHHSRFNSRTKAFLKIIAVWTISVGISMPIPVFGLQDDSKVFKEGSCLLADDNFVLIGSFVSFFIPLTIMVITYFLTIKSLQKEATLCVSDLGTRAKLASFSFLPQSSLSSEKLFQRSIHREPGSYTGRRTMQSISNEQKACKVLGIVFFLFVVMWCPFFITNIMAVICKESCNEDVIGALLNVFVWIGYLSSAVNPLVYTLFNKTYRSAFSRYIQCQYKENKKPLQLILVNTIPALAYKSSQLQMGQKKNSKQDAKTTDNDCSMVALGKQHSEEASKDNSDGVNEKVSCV

[5] = target: T1, 5-HT2A receptor; conditions: background statement, no values; cited from earlier work; remark: listed apart in the source
[6] = cam press, contact time 310 ms, maximum pressing force 16 kN

SMILES: Cl.N#Cc1c[nH]c2c(C(=O)N3CCN(CCc4ccc(F)cc4)CC3)cccc12 [EMD281014 form A, 7-{4-[2-(4-fluorophenyl)ethyl]-piperazine-1-carbonyl}-1H-indole-3-carbonitrile, hydrochloride]
- proportion of form B ([1]; cam press, contact time 250 ms, maximum pressing force 6 kN): about 20%
- proportion of form A in the mixture obtained [1, 6]: ~75%
- proportion of form B in the mixture obtained [1, 6]: about 25%
- proportion of form B ([2]; 250 mg in 5 ml MTBE, stirred 14 days at room temperature): about 30 % by weight
- form B obtained in addition to form A ([2]; suspension in MTBE, room temperature, 14 days): about 30%

SMILES: Cl.N#Cc1c[nH]c2c(C(=O)N3CCN(CCc4ccc(F)cc4)CC3)cccc12 [EMD281014 form B, (3-cyano-1H-indol-7-yl)-[4-(4-fluorophenethyl)piperazin-1-yl]methanone, hydrochloride]
- stability under the tablet production conditions ([1]; X-ray diffraction patterns of tablets produced from form B, no form A or further polymorphic forms unambiguously identified): stable
- conversion of B into A [3]: complete conversion

SMILES: Cl.N#Cc1c[nH]c2c(C(=O)N3CCN(CCc4ccc(F)cc4)CC3)cccc12 [EMD281014, (3-cyano-1H-indol-7-yl)-[4-(4-fluorophenethyl)piperazin-1-yl]methanone, hydrochloride]
- affinity to 5-HT2A receptors [4]: strong affinity
- 5-HT2A receptor-antagonistic properties [5]: 5-HT2A receptor-antagonistic properties
